Laboratory results reported in PubChem BioAssay (NCI).
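Tested at 5 concentrations; 48 h exposure; 96-well plates; endpoints linearly interpolated, else capped at highest concentration. Abbreviation: GI50, concentration required for 50% inhibition of growth. Definition used: TGI = concentration required for complete inhibition of growth.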

Key:
Assay in all cases: inhibition of tumour cell growth, NCI panel, 48 h
[1] = system: 786-0 renal
[2] = system: A498 renal
[3] = system: A549 NSCLC
[4] = system: ACHN renal
[5] = system: BT-549 breast
[6] = system: CAKI-1 renal
[7] = system: CCRF-CEM leukemia
[8] = system: COLO 205 colon
[9] = system: DU-145 prostate
[10] = system: EKVX NSCLC
[11] = system: HCC-2998 colon
[12] = system: HCT-116 colon
[13] = system: HCT-15 colon
[14] = system: HL-60(TB) leukemia
[15] = system: HOP-62 NSCLC
[16] = system: HOP-92 NSCLC
[17] = system: HS 578T breast
[18] = system: HT29 colon
[19] = system: IGROV1 ovarian
[20] = system: K-562 leukemia
[21] = system: KM12 colon
[22] = system: LOX IMVI melanoma
[23] = system: M14 melanoma
[24] = system: MALME-3M melanoma
[25] = system: MCF7 breast
[26] = system: MDA-MB-231 breast
[27] = system: MDA-MB-435
[28] = system: MOLT-4 leukemia
[29] = system: NCI-H226 lung
[30] = system: NCI-H23 lung
[31] = system: NCI-H460 lung
[32] = system: NCI-H522 lung
[33] = system: NCI/ADR-RES ovarian
[34] = system: OVCAR-3 ovarian
[35] = system: OVCAR-4 ovarian
[36] = system: OVCAR-5 ovarian
[37] = system: OVCAR-8 ovarian
[38] = system: PC-3 prostate
[39] = system: RPMI-8226 leukemia
[40] = system: RXF 393 renal
[41] = system: SF-268 CNS
[42] = system: SF-295 CNS
[43] = system: SF-539 CNS
[44] = system: SK-MEL-2 melanoma
[45] = system: SK-MEL-28 melanoma
[46] = system: SK-MEL-5 melanoma
[47] = system: SK-OV-3 ovarian
[48] = system: SN12C renal
[49] = system: SNB-19 CNS
[50] = system: SNB-75 CNS
[51] = system: SR leukemia
[52] = system: SW-620 colon
[53] = system: T-47D breast
[54] = system: TK-10 renal
[55] = system: U251 CNS
[56] = system: UACC-257 melanoma
[57] = system: UACC-62 melanoma
[58] = system: UO-31 renal

## C#CCN(C)CCCOc1ccc(NCc2ccc(/C=C/C(=O)NO)cc2)cc1Cl
[1]
  GI50: 1.13 µM
  TGI: 2.75 µM
[2]
  GI50: 0.417 µM
  TGI: 1.73 µM
[3]
  GI50: 0.528 µM
  TGI: 2.54 µM
[4]
  GI50: 0.379 µM
  TGI: 1.69 µM
[5]
  GI50: 1.37 µM
  TGI: 6.09 µM
[6]
  GI50: 0.544 µM
  TGI: 2.21 µM
[7]
  GI50: 0.264 µM
  TGI: > 100 µM
[8]
  GI50: 0.374 µM
  TGI: 1.92 µM
[9]
  GI50: 0.412 µM
  TGI: 5.28 µM
[10]
  GI50: 0.954 µM
  TGI: 6.8 µM
[11]
  GI50: 0.382 µM
  TGI: 1.91 µM
[12]
  GI50: 0.274 µM
  TGI: 1.7 µM
[13]
  GI50: 0.512 µM
  TGI: 4.6 µM
[14]
  GI50: 0.331 µM
  TGI: 17.3 µM
[15]
  GI50: 0.601 µM
  TGI: 3.24 µM
[16]
  GI50: 0.34 µM
  TGI: 1.41 µM
[17]
  GI50: 0.582 µM
  TGI: 6.22 µM
[18]
  GI50: 0.345 µM
  TGI: 4.77 µM
[19]
  GI50: 0.361 µM
  TGI: 1.57 µM
[20]
  GI50: 0.297 µM
  TGI: > 100 µM
[21]
  GI50: 1.02 µM
  TGI: 6.8 µM
[22]
  GI50: 0.475 µM
  TGI: 1.36 µM
[23]
  GI50: 0.465 µM
  TGI: 2.1 µM
[24]
  GI50: 0.242 µM
  TGI: 1.59 µM
[25]
  GI50: 0.421 µM
  TGI: 11.8 µM
[26]
  GI50: 0.502 µM
  TGI: 4.5 µM
[27]
  GI50: 0.33 µM
  TGI: 1.28 µM
[28]
  GI50: 0.33 µM
  TGI: 17.1 µM
[29]
  GI50: 1.49 µM
  TGI: 4.17 µM
[30]
  GI50: 0.814 µM
  TGI: 2.66 µM
[31]
  GI50: 0.43 µM
  TGI: 3.21 µM
[32]
  GI50: 0.407 µM
  TGI: 2.58 µM
[33]
  GI50: 0.295 µM
  TGI: 5.35 µM
[34]
  GI50: 0.478 µM
  TGI: 2.49 µM
[35]
  GI50: 1.4 µM
  TGI: 19.4 µM
[36]
  GI50: 0.33 µM
  TGI: 2.67 µM
[37]
  GI50: 0.369 µM
  TGI: > 48.3 µM
[38]
  GI50: 0.509 µM
  TGI: 6.85 µM
[39]
  GI50: 0.316 µM
  TGI: 2.82 µM
[40]
  GI50: 0.249 µM
  TGI: 0.799 µM
[41]
  GI50: 1.36 µM
  TGI: 4.65 µM
[42]
  GI50: 0.634 µM
  TGI: 2.03 µM
[43]
  GI50: 0.717 µM
  TGI: 2.9 µM
[44]
  GI50: 2.05 µM
  TGI: 6.61 µM
[45]
  GI50: 0.485 µM
  TGI: 1.92 µM
[46]
  GI50: 0.373 µM
  TGI: 1.34 µM
[47]
  GI50: 0.645 µM
  TGI: 2.99 µM
[48]
  GI50: 1.05 µM
  TGI: 7.34 µM
[49]
  GI50: 1.03 µM
  TGI: 4.06 µM
[50]
  GI50: 0.474 µM
  TGI: 2.92 µM
[51]
  GI50: 0.36 µM
  TGI: > 100 µM
[52]
  GI50: 0.235 µM
  TGI: 0.856 µM
[53]
  GI50: 0.338 µM
  TGI: > 31 µM
[54]
  GI50: 0.387 µM
  TGI: 3.29 µM
[55]
  GI50: 0.502 µM
  TGI: 2.42 µM
[56]
  GI50: 0.419 µM
  TGI: 18.2 µM
[57]
  GI50: 0.367 µM
  TGI: 1.9 µM
[58]
  GI50: 0.299 µM
  TGI: 1.55 µM
